Among the data in patent publication US20070066627A1, “Hydrazone derivatives for combatting harmful insects and arachnids” (priority 2004, published 2007) are mortality values, retold here.

Molecules are shown by their SMILES. A value given as a limit tells only on which side of the number the result lay.

Holding throughout (assay type): in vivo
In assay [1] the test system is 2-Spotted Spider Mite (tetranychus urticae, OP-Resistant Strain). Put plainly: 2-spotted spider mite test on Sieva lima bean plants. The settings on record: 120 h, plants dipped, after 5 days, read-out: mortality compared to untreated controls. As for the experimental part:
2.6 2-Spotted Spider Mite (tetranychus urticae, OP-Resistant Strain)
Sieva lima bean plants with primary leaves expanded to 7-12 cm were infested by placing on each a small piece from an infested leaf (with about 100 mites) taken from the main colony. This was done at about 2 hours before treatment to allow the mites to move over to the test plant to lay eggs. The piece of leaf used to transfer the mites was removed. The newly-infested plants were dipped in the test solution and allowed to dry. The test plants were kept under fluorescent light (24 hour photoperiod) at about 25° C. and 20-40% relative humidity. After 5 days, one leaf was removed and mortality counts were made.

For assay [2], the system named is Silverleaf Whitefly (bemisia argentifolii). Put plainly: Silverleaf whitefly test on cotton plants. The note with it: 72 h, cotyledons dipped, adults, 3 days after treatment, read-out: mortality compared to untreated controls. How it is done: 2.5 Silverleaf Whitefly (bemisia argentifolii)
(§1) The active compounds were formulated in 50:50 acetone:water and 100 ppm Kinetic® surfactant.
Selected cotton plants were grown to the cotyledon state (one plant per pot). The cotyledons were dipped into the test solution to provide complete coverage of the foliage and placed in a well-vented area to dry. Each pot with treated seedling was placed in a plastic cup and 10 to 12 whitefly adults (approximately 3-5 day old) were introduced. The insects were collected using an aspirator and an 0.6 cm, non-toxic Tygon® tubing (R-3603) connected to a barrier pipette tip. The tip, containing the collected insects, was then gently inserted into the soil containing the treated plant, allowing insects to crawl out of the tip to reach the foliage for feeding. The cups were covered with a reusable screened lid (150 micron mesh polyester screen PeCap from Tetko Inc). Test plants were maintained in the holding room at about 25° C. and 20-40% relative humidity for 3 days avoiding direct exposure to the fluorescent light (24 hour photoperiod) to prevent trapping of heat inside the cup. Mortality was assessed 3 days after treatment of the plants.

Assay [3] relates to Orchid Thrips (dichromothrips corbetti). As to the kind of experiment: Orchid thrips floral-immersion test. The settings on record: 96 h, adults, after 4 days, read-out: mortality compared to untreated controls. How it is done: 2.7 Orchid Thrips (dichromothrips corbetti)
Dichromothrips corbetti adults used for bioassay were obtained from a colony maintained continuously under laboratory conditions. For testing purposes, the test compound was diluted to a concentration of 500 ppm (wt compound:vol diluent) in a 1:1 mixture of acetone:water, plus 0.01% Kinetic® surfactant.
Thrips potency of each compound was evaluated by using a floral-immersion technique. Plastic petri dishes were used as test arenas. All petals of individual, intact orchid flowers were dipped into treatment solution for approximately 3 seconds and allowed to dry for 2 hours. Treated flowers were placed into individual petri dishes along with 10-15 adult thrips. The petri dishes were then covered with lids. All test arenas were held under continuous light and a temperature of about 28° C. for duration of the assay. After 4 days, the numbers of live thrips were counted on each flower, and along inner walls of each petri dish. The level of thrips mortality was extrapolated from pretreatment thrips numbers.

Assay [4] deals with Cotton Aphid (aphis gossypii). As to the kind of experiment: Cotton aphid test on cotton cotyledons. The note with it: 120 h, cotyledons dipped, after 5 days, read-out: mortality in comparison with untreated controls.
Description: 2.2 Cotton Aphid (aphis gossypii)
as §1
Cotton plants at the cotyledon stage (one plant per pot) were infested by placing a heavily infested leaf from the main colony on top of each cotyledon. The aphids were allowed to transfer to the host plant overnight, and the leaf used to transfer the aphids was removed. The cotyledons were dipped in the test solution and allowed to dry. After 5 days, mortality counts were made.

For assay [5], the system named is Southern Armyworm (Spodoptera eridania), 2nd Instar Larvae. Put plainly: Southern armyworm leaf-dip test, 2nd instar larvae. The note with it: foliar, 120 h, observation at 5 days, read-out: mortality in comparison with untreated controls. How it is done: 2.1 Southern Armyworm (Spodoptera eridania), 2nd Instar Larvae
The active compounds were formulated for testing the activity against insects and arachnids as a 10.000 ppm solution in a mixture of 35% acetone and water, which was diluted with water, if needed.
A Sieva lima bean leaf expanded to 78 cm in length is dipped in the test solution with agitation for 3 seconds and allowed to dry in a hood. The leaf is then placed in a 100×10 mm petri dish containing a damp filter paper on the bottom and ten 2nd instar caterpillars. At 5 days, observations are made of mortality, reduced feeding, or any interference with normal molting.

As a reminder, the mortality is the share of the test organisms that died. With `CC(C=NNC(=O)Cc1cccc2ccccc12)=Cc1cccc(F)c1` [Compound 21], the mortality at 300 ppm in assay [1] is over 75%. On to `CC(C=NNC(=O)c1cccs1)=Cc1ccccc1` [Compound 50], for which the mortality at 300 ppm in assay [2] is over 80%. In the case of `CC(C=NNC(=O)c1ccc(C)s1)=Cc1ccc(OC(F)F)cc1` [Compound 91], the mortality at 300 ppm in assay [1] was over 75%.

As for `O=C(NN=CC=Cc1ccccc1)c1ccc(Cl)s1` [Compound 96], in assay [1], the mortality at 300 ppm is over 75%. On the same count and under the same terms, the figure for `CC(C=NNC(=O)c1[nH]cnc1C)=Cc1ccc(Cl)cc1Cl` [Compound 138] is over 75%. Turning to `CC(C=NNC(=O)c1[nH]cnc1C)=Cc1cccc(F)c1` [Compound 144], the mortality at 500 ppm in assay [3] was over 95%. As to `CC(C=NNC(=O)c1ccccn1)=Cc1ccccc1` [Compound 156], the mortality at 300 ppm is over 75% in assay [4] and over 80% in assay [2].

`CC(C=NNC(=O)c1ccccn1)=Cc1ccc(F)cc1` [Compound 158]: in assay [2], the mortality at 300 ppm is over 80%.

In the case of `CC(C=NNC(=O)c1ccc(C)cc1)=Cc1ccccc1` [Compound 183], the mortality at 300 ppm in assay [1] is over 75%; in assay [5], over 80%; in assay [2] it was over 80%. As for `COc1ccccc1C(=O)NN=CC(C)=Cc1cccc(F)c1` [Compound 187], the mortality at 300 ppm in assay [2] was over 80%.

Turning to `CCC(C=NNC(=O)c1ccc(F)cc1)=Cc1ccccc1` [Compound 189], in assay [2], the mortality at 300 ppm is over 80%. Regarding `CCC(C=NNC(=O)c1ccccc1F)=Cc1ccccc1` [Compound 193], in assay [2], the mortality at 300 ppm was over 80%.
